Results published in article PMC11819893, “Isolation and Bioassay of Linear Veraguamides from a Marine Cyanobacterium (Okeania sp.)” (Molecules, 2025).
Numbered stars: 1 amine (or outer) side, 2 acyl side, 3 side chain; on linkers, the order of the positions; unused ones are H or OH. Square brackets hold non-standard residues; d marks the D form. Peptide text beside a SMILES is read from it. * marks the point of attachment. NMeI = CC[CH](C)[CH](NC)C(=O)O; X2 = CCC(C)C(O[*:1])C(=O)[*:2]; NMeV = CN[CH](C(=O)O)C(C)C; X1 = C#CCCCC(O)C(C)C(=O)*

Key:
MDA-MB-231 cells = test: MTT cytotoxicity assay in MDA-MB-231 (TNBC) cells; format: cell-based, human; conditions: for cytotoxicity / effect on viability in words: TNBC (MDA-MB-231) cells, MTT
Protocol: (§1) The human triple-negative breast cancer cell line MDA-MB-231 was obtained from ATCC and was maintained in DMEM:F-12 (1:1) (Life Technologies, Carlsbad, CA, USA), 10% Fetal Bovine Serum (Atlanta Biologicals, Atlanta, GA, USA), and 1% Penicillin/Streptomycin (Sigma, St. Louis, MO, USA). The estrogen-positive MCF-7 cell line was also obtained from ATCC and was maintained in 1640 RPMI media (Life technologies), 10% FBS, and 1% Penicillin/Streptomycin. HEK-293 cells were also obtained from ATCC and maintained in Dulbecco’s Modification of Eagle’s Medium (DMEM), 10% Fetal Bovine Serum (FBS), and 1% Penicillin/Streptomycin (Pen/Strep).
(§2) Two rounds of toxicity experimentation were completed. First, MDA-MB-231 and MCF-7 cells were plated at a density of 5 × 10^3 cells per well in a 96-well plate. Cells were allowed to attach overnight. The cells were treated with depsipeptides or vehicle for 72 h with 5% FBS stimulation. DMSO was used as a vehicle control. After treatment, 10 μ L MTT (Sigma) was added to each well (0.5 mg/mL final concentration), and the plates were incubated for 3 h (5% CO2 and 37 °C). The medium was removed and the MTT-formazan crystals were dissolved with 100 μ L DMSO per well. The absorbance was measured at 570 nm with a VICTOR^3 1420 multilabel counter (Perkin Elmer, Springfield, IL, USA). Three wells were analyzed for each condition, and wells containing medium-MTT only (no cells) and medium-MTT (DMSO + 5% FBS) were used as controls. Results were normalized to the DMSO + 5% FBS group.

MCF-7 cells = test: MTT cytotoxicity assay in MCF-7 (estrogen positive) cells; format: cell-based, human; conditions: ER-positive MCF-7 cells, 72 h, listed as Veraguamide O
Protocol: as §1
as §2, with “The medium was removed and the MTT-formazan crystals were dissolved with 100 μ L DMSO per well.” left out, “Results were normalized to the DMSO + 5% FBS group.” left out

C#CCCCC(O)C(C)C(=O)NC(C(=O)N(C)C(C(=O)OC(C(=O)N1CCCC1C(=O)N(C)C(C(=O)O)C(C)CC)C(C)CC)C(C)C)C(C)CC (stereo not drawn) [Veraguamide O (1)] (X1-I[NMeV][X2]P[NMeI]-OH; configuration not given here)
cell death observed microscopically (MDA-MB-231 cells; MDA-MB-231 (TNBC), 10 μM, microscopy): appeared to induce cell death
viability (MDA-MB-231 cells; MDA-MB-231, MTT, 72 h, 0.14 µM, % of DMSO + 5% FBS control): 86%
selectivity for TNBC over estrogen-positive cells, in words (MDA-MB-231 cells; MDA-MB-231 compared to MCF-7, MTT): selective inhibitory effects against TNBC (MDA-MB-231) cells compared to estrogen-positive (MCF-7) breast cancer cells
cytotoxicity / effect on viability in words (MDA-MB-231 cells; 72 h): decreased viability in MDA-MB-231 cells in a concentration-dependent manner
cytotoxicity / effect on viability in words (MDA-MB-231 cells; 72 h, listed as veraguamide O): similar, albeit minor, levels of toxicity
cytotoxicity / effect on viability in words (MCF-7 cells): no cytotoxicity
